Laboratory results taken from patent US20160075991A1, “Process for Preparing Starter Cultures of Lactic Acid Bacteria” (INSTITUT NATIONAL DE LA RECHERCHE, priority 1998, published 2016).

Legend:
[1] = tested on: IL896; test: Culture with hemin and agitation, different strains (Example 4); format: cell-based, L. lactis; settings: strain IL896, hemin 10 μg/ml and agitation, M17 1% glucose, 24 h
Method: (§1) Bacteria [MG1363 and 7 strains (IL1403, IL582, IL801, IL896, Z105, Z106, Z191) representative of L. lactis subgroups [TAILLEZ et al., System. Appl. Microbiol., 21, 530-538, (1998)] are cultured in M17 medium (1% glucose) inoculated (1/1000 dilution) with a saturated starter culture previously grown at 30° C. for 24 h. Hemin at a final concentration of 10 μg/ml is added to the inoculated medium before aerating the cultures by shaking (minimum 220 rpm). Control cultures are grown in parallel with no hemin in the medium, and no shaking. […]

[2] = tested on: IL1403; test: as above; format: cell-based, L. lactis; settings: strain IL1403, hemin 10 μg/ml and agitation, M17 1% glucose, 24 h
Method: as §1

[3] = tested on: Z191; test: as above; format: cell-based, L. lactis; settings: strain Z191, hemin 10 μg/ml and agitation, M17 1% glucose, 24 h
Method: as §1

[4] = tested on: MG1363; test: as above; format: cell-based, L. lactis; settings: strain MG1363, hemin 10 μg/ml and agitation, M17 1% glucose, 24 h
Method: as §1

[5] = tested on: Z105; test: as above; format: cell-based, L. lactis; settings: strain Z105, hemin 10 μg/ml and agitation, M17 1% glucose, 24 h
Method: as §1

[6] = tested on: IL582; test: as above; format: cell-based, L. lactis; settings: strain IL582, hemin 10 μg/ml and agitation, M17 1% glucose, 24 h
Method: as §1

[7] = tested on: Lactococcus lactis subsp. cremoris strain MG1363; test: Culturing in the presence of hemin with aeration (Example 1.1); format: cell-based; settings: for pH: final pH of medium; for pH / OD600 nm / Viable bacterial count / Concentration of lactic acid: hemin 10 μg/ml, aeration, 24 h
Method: A laboratory medium (M17 supplemented with glucose in amounts, as indicated in the Table I, lactose being also usable) is inoculated with the Lactococcus lactic subsp. cremoris strain MG1363 in the form of a 1/100 or 1/1000 dilution of a saturated culture (prepared at 30° C. with no shaking). The inoculated medium contained or not hemin at a final concentration of 10 μg/ml (a 0.5 mg/ml stock solution is prepared by dissolving 100 mg of hemin in 2 ml of 5N NaOH, to which 198 ml of water is then added; the solution is autoclaved at 120° C. for 20 minutes). For bacteria grown in medium containing hemin, cultures were maintained at 30° C. with shaking (250 rotations per minute) in order to ensure oxygenation. Control cultures, without addition of hemin and without shaking, were grown at 30° C. in parallel. After 24 h of growth, aliquots are removed to measure the optical density at 600 nm (OD600 nm), the number of viable bacteria, the final pH and the concentration of lactic acid in the medium.

[8] = tested on: Z106; test: Culture with hemin and agitation, different strains (Example 4); format: cell-based, L. lactis; settings: strain Z106, hemin 10 μg/ml and agitation, M17 1% glucose, 24 h
Method: Bacteria [MG1363 and 7 strains (IL1403, IL582, IL801, IL896, Z105, Z106, Z191) representative of L. lactis subgroups [TAILLEZ et al., System. Appl. Microbiol., 21, 530-538, (1998)] are cultured in M17 medium (1% glucose) inoculated (1/1000 dilution) with a saturated starter culture previously grown at 30° C. for 24 h. Hemin at a final concentration of 10 μg/ml is added to the inoculated medium before aerating the cultures by shaking (minimum 220 rpm). Control cultures are grown in parallel with no hemin in the medium, and no shaking. After 24 h., aliquots are taken and OD600 and final pH are measured.

[9] = tested on: IL801; test: as above; format: cell-based, L. lactis; settings: strain IL801, hemin 10 μg/ml and agitation, M17 1% glucose, 24 h
[10] = glucose 5 g/l, dilution factor 100
[11] = glucose 5 g/l, dilution factor 1000
[12] = glucose 6 g/l, dilution factor 100
[13] = glucose 6 g/l, dilution factor 1000
[14] = glucose 7 g/l, dilution factor 100
[15] = glucose 7 g/l, dilution factor 1000
[16] = glucose 8 g/l, dilution factor 100
[17] = glucose 8 g/l, dilution factor 1000
[18] = glucose 9 g/l, dilution factor 100
[19] = glucose 9 g/l, dilution factor 1000
[20] = glucose 10 g/l, dilution factor 100
[21] = glucose 10 g/l, dilution factor 1000

Work on `C=CC1=C(C)c2cc3[n-]c(cc4nc(cc5[n-]c(cc1n2)c(C)c5C=C)C(C)=C4CCC(=O)O)c(CCC(=O)O)c3C.[Cl-].[Fe+3]` [hemin] yielded a pH ([1]; final pH) of 5.24, an OD500 nm [1] of 4.5 and a pH ([2]; final pH) of 5.41. The OD500 nm [2] was 5.3, the pH ([3]; final pH) was 5.36 and the OD500 nm [3] was 3.8. For the same molecule, the pH ([4]; final pH) was 5.86, the OD500 nm [4] was 5 and the pH ([5]; final pH) was 5.67. It also gave an OD500 nm [5] of 5, a pH ([6]; final pH) of 5.73 and an OD500 nm [6] of 5.1. For the same molecule, the “production of lactic acid as share of the quantity of sugar added” value ([7]; cells cultured in the presence of hemin and oxygen) was “less than 10%”, the pH [7, 10] was 6.2 and the pH [7, 11] was 6.19. For the same molecule, the pH [7, 12] was 6.25, the pH [7, 13] was 6.13 and the pH [7, 14] was 6.09. The pH [7, 15] was 6.07, the pH [7, 16] was 6.04 and the pH [7, 17] was 6.03. For the same molecule, the pH [7, 18] was 6.02, the pH [7, 19] was 6.01 and the pH [7, 20] was 6.01. The pH [7, 21] was 5.99, the OD600 nm [7, 10] was 4.6 and the Viable bacterial count [7, 10] was 5.7 ×10^9. For the same molecule, the “Concentration of lactic acid” value [7, 11] was 0.12 g/L, the OD600 nm [7, 11] was 4.5 and the Viable bacterial count [7, 11] was 5.7 ×10^9. For the same molecule, the OD600 nm [7, 12] was 5.1, the Viable bacterial count [7, 12] was 6 ×10^9 and the “Concentration of lactic acid” value [7, 13] was 0.14 g/L. The OD600 nm [7, 13] was 5.5, the Viable bacterial count [7, 13] was 7.6 ×10^9 and the OD600 nm [7, 14] was 5.6. For the same molecule, the Viable bacterial count [7, 14] was 9.1 ×10^9, the “Concentration of lactic acid” value [7, 15] was 0.19 g/L and the OD600 nm [7, 15] was 5.7. The Viable bacterial count [7, 15] was 8.6 ×10^9, the OD600 nm [7, 16] was 5.9 and the Viable bacterial count [7, 16] was 8.9 ×10^9. The “Concentration of lactic acid” value [7, 17] was 0.35 g/L, the OD600 nm [7, 17] was 5.4 and the Viable bacterial count [7, 17] was 9.3 ×10^9. The OD600 nm [7, 18] was 5.9, the Viable bacterial count [7, 18] was 9.2 ×10^9 and the “Concentration of lactic acid” value [7, 19] was 0.52 g/L. The OD600 nm [7, 19] was 5.8, the Viable bacterial count [7, 19] was 9.4 ×10^9 and the OD600 nm [7, 20] was 6.1. For the same molecule, the Viable bacterial count [7, 20] was 10.1 ×10^9, the “Concentration of lactic acid” value [7, 21] was 0.98 g/L and the OD600 nm [7, 21] was 6.2. For the same molecule, the Viable bacterial count [7, 21] was 9.6 ×10^9, the “pH of the culture (remains stable)” value ([7]; hemin and oxygen, whatever the concentration of glucose) was “approximately 6.1” and the pH ([8]; final pH) was 5.74. For the same molecule, the OD500 nm [8] was 4.5, the pH ([9]; final pH) was 5.44 and the OD500 nm [9] was 4.3.
